Results published in patent US12678509B2, “Inhibitor of apoptosis (IAP) protein antagonists” (Sanford Burnham Prebys Medical Discovery Institute, priority 2019, dated 2026).

Legend:
[1] = Pharmacokinetic study in mice, snapshot PK; type: in vivo; conditions: female, C57BL/6J, mouse, plasma, ip, one hour after i.p. injection of 10 mg/kg
Experimental: All animal procedures were approved by the Sanford Burnham Prebys Medical Discovery Institute Institutional Animal Care and Use Committee and were performed according to the NIH guidelines for the Care and Use of Laboratory Animals. Adult female C57BL/6J were purchased from JAX laboratories and housed with free access to food and water on a 12 h light/dark cycle. Compounds were formulated in 5% DMSO, 10% Tween-80, and 85% dH2O and injected intraperitoneally (i.p.) into mice at doses of 10 mg/kg. For snapshot PK analysis, blood samples were collected retro-orbitally one hour after injection and for the time course PK study, blood samples were collected at 15 min, 30 min, 1 h, 2 h, 4 h, 6 h, 24 h time points. For the blood samples plasma was separated by centrifugation. Plasma samples were extracted with acetonitrile:water 4:1 with 0.1% formic acid containing indometacin as an internal standard. Samples were centrifuged and supernatants were diluted with acetonitrile:water and analyzed via LC-MS/MS on a Shimadzu Nexera X2 HPLC coupled to an AB Sciex 6500 QTRAP.
Plasma exposure of selected compounds at 1 h compared.
Plasma levels of parent compound determined one hour after i.p. injection of 10 mg/kg

NB-4 = experiment: Cell viability (CellTiter-Glo); type: cell-based, Human; conditions: Homo sapiens, NB-4, 72 h, read-out: NB-4 Viability 72 h IC50
Experimental: The compound 18a was tested in 16 different cell lines. For 6-day compound treatment 1700 cells per well were plated in a 384-well plate (Corning #781098) and incubated overnight at 37° C./5% CO2. […] Afterwards, 20 μL CellTiter-Glo reagent (Promega, #G7570) was added to each well outside of the incubator and the plates were read for luminescence on a Spark® multimode microplate reader (Tecan). Data was fit in GraphPad Prism 8 to a nonlinear regression curve to determine the IC50 of the compounds. […]

SKOV-3 = experiment: Cell viability (CellTiter-Glo), 48 hrs; type: cell-based; conditions: Homo sapiens, SK-OV-3, 48 h, read-out: SKOV-3 Viability 48 h IC50
Experimental: One thousand seven hundred cells per well were plated in a 384 well plate and incubated overnight at 37° C./5% CO2. The following day, compounds in 10-fold dilutions were added to the plates and the plates returned to the incubator for 48 hrs. 48 hrs later, plates were removed to the bench and 20 μL CellTiter-Glo reagent was added to each well and the plates were read for luminescence on a Spark® multimode microplate reader (Tecan). Data were fit using PRISM to a nonlinear regression curve to determine the IC50 of the compounds.

AML-SH-065 = experiment: Cell viability in patient derived AML samples (CellTiterGlo, 72 h); type: cell-based, human; conditions: for IC50: Homo sapiens, 72 h, read-out: AML-SH-065 IC50; for AML-SH-065 Efficacy: patient derived AML sample AML-SH-065, 72 h, cell viability at max. concentration
Experimental: (§1) Patient AML samples were gathered (under IRB 13-6180) from Scripps MD Anderson, La Jolla, CA Fresh blood samples were subjected to gradient density centrifugation with Ficoll-Paque™ PLUS (17-1440-02, GE Healthcare) and peripheral blood mononuclear cells purified as per manufacturer's protocol.
(§2) 75 nL of 1000× serially diluted IAP inhibitors were spotted in triplicate onto 384-well tissue culture treated plates (Greiner) using a Labcyte Echo acoustic dispensing device. Patient-derived AML cells were maintained in mTeSR1^+1× supplements (Stemcell Technologies) and penicillin/streptomycin/L-glutamine (Omega Scientific Inc.) and Fungizone (HyClone). 25 μL of cell dilution were plated into 384-well plate containing the drugs and incubated for 72 h. Cell viability was assessed by adding 25 μL CellTiterGlo (Promega Corp.) on a Synergy 2 plate reader with Gen5 software (Biotek). % viability was calculated by normalizing luminescence to vehicle only controls (DMSO) in Microsoft Excel and plotted using GraphPad Prism 8. The IC50 values were calculated using log(inhibitor) vs. response—Variable slope (four parameters) equation. (FIG. 6)

AML-SH-075 = experiment: as above; type: cell-based, human; conditions: for IC50: Homo sapiens, 72 h, read-out: AML-SH-075 IC50; for AML-SH-075 Efficacy: patient derived AML sample AML-SH-075, 72 h, cell viability at max. concentration
Experimental: as §1, §2

AML-SH-074 = experiment: as above; type: cell-based, human; conditions: for IC50: Homo sapiens, 72 h, read-out: AML-SH-074 IC50; for AML-SH-074 Efficacy: patient derived AML sample AML-SH-074, 72 h, cell viability at max. concentration
Experimental: as §1, §2

ML-IAP = molecular target: T1, ML-IAP (Homo sapiens, UniProt Q96CA5); experiment: Fluorescence polarization assay; type: binding; conditions: SMAC-FITC probe, Ki calculated from IC50
T1 sequence (Q96CA5 1-298): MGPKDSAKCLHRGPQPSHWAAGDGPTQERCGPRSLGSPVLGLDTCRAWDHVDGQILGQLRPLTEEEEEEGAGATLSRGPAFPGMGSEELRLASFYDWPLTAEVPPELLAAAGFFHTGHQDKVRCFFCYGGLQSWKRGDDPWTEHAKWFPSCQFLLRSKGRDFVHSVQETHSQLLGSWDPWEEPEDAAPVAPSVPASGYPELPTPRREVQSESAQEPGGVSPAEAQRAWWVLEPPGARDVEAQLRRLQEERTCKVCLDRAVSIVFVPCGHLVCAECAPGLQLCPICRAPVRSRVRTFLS
Experimental: (§3) Binding of compounds to ML-IAP and BIR3 domain of cIAP1, cIAP2 and XIAP was determined by fluorescence polarization. Assay buffer was 100 mM KH2PO4 at pH 7.5, 50 μM ZnSO4, 1 mM TCEP (Tris(2-carboxyethyl)phosphine hydrochloride) and 50 nM SMAC-FITC probe (AbuRPF-K(5-Fam)-NH2) as described by Z. Nikolovska-Coleska et al.^9. cIAP1 and XIAP were present at 800 nM while cIAP2 and MLIAP were present at 1.5 μM. Compounds in 3-fold dilutions were added to the plates ranging from 30 μM to 1.5 nM. Assays were run in 384-well black plates read (Greiner Bio-One #784076) in an Analyst in fluorescence polarization mode with excitation at 485 nm and emission at 535 nm. Data was fit to a nonlinear regression curve in GraphPad Prism 8 to determine the IC50 values of the compounds. Ki's were then calculated from the IC50 values using equation: Ki=[I]50/([L]50/Kd+[P]0/Kd+1) formulated by Z. Nikolovska-Coleska et al.

BIR3 domain of cIAP1 = BIR3 domain of cIAP1 (Homo sapiens, UniProt Q13490); experiment: Fluorescence polarization assay; type: binding; conditions: SMAC-FITC probe, Ki calculated from IC50
Experimental: as §3

BIR3 domain of cIAP2 = BIR3 domain of cIAP2 (Homo sapiens, UniProt Q13489); experiment: Fluorescence polarization assay; type: binding; conditions: SMAC-FITC probe, Ki calculated from IC50
Experimental: as §3

BIR3 domain of XIAP = BIR3 domain of XIAP (Homo sapiens, UniProt P98170); experiment: Fluorescence polarization assay; type: binding; conditions: SMAC-FITC probe, Ki calculated from IC50
Experimental: as §3

MOLM 13 = experiment: Cell viability (CellTiter-Glo), 6-day compound treatment; type: cell-based, Human; conditions: Homo sapiens, MOLM-13, 144 h, read-out: MOLM 13 Viability 6 d IC50
Experimental: The compound 18a was tested in 16 different cell lines. For 6-day compound treatment 1700 cells per well were plated in a 384-well plate (Corning #781098) and incubated overnight at 37° C./5% CO2. The following day, compounds in 10-fold dilutions were added to the plates and the plates were incubated for 6 days. Afterwards, 20 μL CellTiter-Glo reagent (Promega, #G7570) was added to each well outside of the incubator and the plates were read for luminescence on a Spark® multimode microplate reader (Tecan). Data was fit in GraphPad Prism 8 to a nonlinear regression curve to determine the IC50 of the compounds. […]

[2] = tested on: latently infected cell line Jurkat 2D10; experiment: HIV Jurkat 2D10 cells GFP+ assay (reversal of HIV latency); type: cell-based; conditions: Homo sapiens, Jurkat, 48 h, read-out: Jurkat 2D10 GFP+ EC50
Experimental: Several compounds (Table 5) were tested for their efficacy in the reversal of HIV latency in the latently infected cell line Jurkat 2D10. Jurkat 2D10 cells were treated with different doses of the compounds, or one of the following compounds: BV-6, SM-164, Birinapant, LCL-161, GDC-0152, AT-406 for 48 hours. Reversal of HW latency was evaluated by analyzing GFP expression using flow cytometry. Induction of GFP expression was compared to baseline GFP levels detected in the absence of treatment.

Chain of BIR3 domain of cIAP2 (Q13489 238-349 limits assumed): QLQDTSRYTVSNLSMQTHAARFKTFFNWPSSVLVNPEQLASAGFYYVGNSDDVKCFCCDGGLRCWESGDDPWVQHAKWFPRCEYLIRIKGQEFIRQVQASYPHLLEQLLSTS
Chain of BIR3 domain of XIAP (P98170 241-356 limits assumed): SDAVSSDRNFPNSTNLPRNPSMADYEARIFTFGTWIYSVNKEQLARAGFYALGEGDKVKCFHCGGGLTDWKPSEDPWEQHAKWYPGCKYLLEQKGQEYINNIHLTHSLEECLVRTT
Chain of BIR3 domain of cIAP1 (Q13490 253-363 limits assumed): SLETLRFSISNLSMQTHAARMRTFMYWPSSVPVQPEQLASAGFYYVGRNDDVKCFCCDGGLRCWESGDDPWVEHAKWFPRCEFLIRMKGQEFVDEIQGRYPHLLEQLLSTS

SMILES	concentration at 1 h [1]	IC50 (NB-4)	IC50 (SKOV-3)	IC50 (AML-SH-065)	AML-SH-065 Efficacy (AML-SH-065)	IC50 (AML-SH-075)	AML-SH-075 Efficacy (AML-SH-075)	IC50 (AML-SH-074)	AML-SH-074 Efficacy (AML-SH-074)	Ki (ML-IAP)	Ki (BIR3 domain of cIAP1)	Ki (BIR3 domain of cIAP2)	Ki (BIR3 domain of XIAP)	IC50 (MOLM 13)	EC50 [2]
CN[C@@H](C)C(=O)N[C@H]1CCS[C@H]2CC(C)(C)[C@@H](C(=O)N[C@H]3c4ccccc4C[C@H]3OCC#Cc3ccc(C#CCO[C@@H]4Cc5ccccc5[C@@H]4NC(=O)[C@H]4N5C(=O)[C@@H](NC(=O)[C@H](C)NC)CCS[C@H]5CC4(C)C)cc3)N2C1=O [Compound 18c]	1310 nM	< 10 nM	< 10 nM	10 to 100 nM	I (I < 10%)	1000 to 10000 nM	I (I < 10%)	100 to 1000 nM	I (I < 10%)	50 to 100 nM	≤ 50 nM	50 to 100 nM	≤ 50 nM	10 to 100 nM	1 to 10 nM
CN[C@@H](C)C(=O)N[C@H]1CCS[C@H]2CC(C)(C)[C@@H](C(=O)N[C@H]3c4ccccc4C[C@H]3OCC#Cc3ccc(CO[C@@H]4Cc5ccccc5[C@@H]4NC(=O)[C@H]4N5C(=O)[C@@H](NC(=O)[C@H](C)NC)CCS[C@H]5CC4(C)C)cc3)N2C1=O [Compound 18e, (2S)-1-{[(4S,7S,9aS)-7-{[(1S,2R)-2-({3-[4-({[(1S,2R)-1-({[(4S,7S,9aS)-8,8-Dimethyl-4-{[(2S)-2-(methylammonio)propanoyl]amino}-5-oxooctahydropyrrolo[2,1-b][1,3]thiazepin-7-yl]carbonyl}amino)-2,3-dihydro-1H-inden-2-yl]oxy}methyl)phenyl]prop-2-ynyl}oxy)-2,3-dihydro-1H-inden-1-yl]carbamoyl}-8,8-dimethyl-5-oxooctahydropyrrolo[2,1-b][1,3]thiazepin-4-yl]amino}-N-methyl-1-oxopropan-2-ammonium dichloride]	6200 nM	10 to 100 nM	< 10 nM	10 to 100 nM	I (I < 10%)	1000 to 10000 nM	I (I < 10%)	100 to 1000 nM	I (I < 10%)	100 to 200 nM	50 to 100 nM	100 to 200 nM	≤ 50 nM	100 to 1000 nM	< 1 nM
CN[C@@H](C)C(=O)N[C@H]1CCO[C@H]2CC(C)(C)[C@@H](C(=O)N[C@H]3c4ccccc4C[C@H]3OCC#CC#CCO[C@@H]3Cc4ccccc4[C@@H]3NC(=O)[C@H]3N4C(=O)[C@@H](NC(=O)[C@H](C)NC)CCO[C@H]4CC3(C)C)N2C1=O [Compound 18q, [(1S)-1-{[(4S,7S,9aS)-7-{[(1S,2R)-2-[(6-{[(1S,2R)-1-[(4S,7S,9aS)-8,8-Dimethyl-4-[(2S)-2-(methylazaniumyl)propanamido]-5-oxo-octahydropyrrolo[2,1-b][1,3]oxazepine-7-amido]-2,3-dihydro-1H-inden-2-yl]oxy}hexa-2,4-diyn-1-yl)oxy]-2,3-dihydro-1H-inden-1-yl]carbamoyl}-8,8-dimethyl-5-oxo-octahydropyrrolo[2,1-b][1,3]oxazepin-4-yl]carbamoyl}ethyl](methyl)azanium dichloride]	1870 nM	–	< 10 nM	10 to 100 nM	I (I < 10%)	10 to 100 nM	I (I < 10%)	100 to 1000 nM	I (I < 10%)	50 to 100 nM	50 to 100 nM	50 to 100 nM	≤ 50 nM	10 to 100 nM	100 to 1000 nM
